Measurements from EP3144007A1 (priority 2015, dated 2017).
Where “and” joins values, the source holds several entries; their conditions need not be identical. Identical values can stand only once. Where a SMILES comes first, the peptide text is derived from it. Bridges are numbered along the chain shown (N, C = ends).

What was measured:
[1] = tested on: cerebellar granule neurons; format: cell-based
[2] = tested on: cerebellar granule neurons
[3] = molecular target: TrkB receptor on cultured cerebellar granule neurons

`CSCC[C@@H]1NC(=O)CNC(=O)[C@H](CC(N)=O)NC(=O)[C@H](CC(N)=O)NC(=O)[C@H](CCSC)NC(=O)[C@H](Cc2c[nH]cn2)NC(=O)[C@H]([C@@H](C)O)NC(=O)[C@@H]2CCCN2C(=O)[C@H](CC(N)=O)NC(=O)[C@H](CC(=O)O)NC(=O)[C@H](CC(C)C)NC(=O)[C@H](CCC(N)=O)NC(=O)[C@H](CC(C)C)NC(=O)[C@@H](NC(=O)CN)CSSC[C@@H](C(=O)N[C@@H](CC(N)=O)C(=O)N[C@@H](CC(N)=O)C(=O)NCC(=O)O)NC(=O)[C@H](Cc2c[nH]cn2)NC(=O)[C@H]([C@@H](C)O)NC(=O)[C@@H]2CCCN2C(=O)[C@H](CC(N)=O)NC(=O)[C@H](CC(=O)O)NC(=O)[C@H](CC(C)C)NC(=O)[C@H](CCC(N)=O)NC(=O)[C@H](CC(C)C)NC1=O` [d5 peptide] (H-GCLQLDNPTHMNNGMLQLDNPTHCNNG-OH; disulfide 2-24) was tested, and the “internalization of Hc-TeNT fragment (area occupied by Hc-TeNT)” value [1] was “seems not to affect”, the “percentage of Hc-TeNT in colocalization with TrkB” value [1] was “about 44%” and the “percentage of TrkB in co-localization with Hc-TeNT” value [1] was 51%. For the same molecule, the “competition with the Hc-TeNT fragment for binding to cell membrane” value [2] was “capable to compete”, the IC50 ([2]; 3 h) was 108 µM and the “IC50 (concentration of unlabeled competitor necessary to displace 50% of specifically bound Hc-TeNT)” value ([2]; 3 h) was 317.3 µg/mL.

In the case of “BDNF (from UniProt P23560 129-247) (ligand)”, the IC50 [3] is reported as 4.2 nM and 0.06 µg/mL.
